Molecular target: T1, recombinant human cannabinoid CB2 receptor (Homo sapiens, UniProt P34972)
T1 construct: purchased Receptor Biology RB-HCB2
Test: competition with [3H] CP-55,940 for binding to recombinant cannabinoid receptor membranes (CB2)
Details: not given
Description: Potential cannabinoid receptor ligands were screened for the ability to compete with [^3H] CP-55,940 for binding to recombinant cannabinoid receptors. Test compounds were serially diluted in Diluent Buffer (50 mM Tris pH 7.1, 1 mM EDTA, 3 mM MgCl2, 0.1% BSA, 10% DMSO, 0.36% methyl cellulose (Sigma M-6385)) from stocks prepared in 100% DMSO. Aliquots (10 μL) were transferred into 96-well microtiter plates. Membrane preparations of recombinant human cannabinoid CB2 receptor (Receptor Biology #RB-HCB2) or recombinant human cannabinoid CB1 receptor (Receptor Biology #RB-HCB1) were diluted to 0.3 mg/mL in Binding Buffer (50 mM Tris pH 7.2, 1 mM EDTA, 3 mM MgCl2, 0.1% BSA). Aliquots (50 μL) were added to each well of the microtiter plate. The binding reactions were initiated by addition of [^3H] CP-55,940 (New England Nuclear # NET 1051; specific activity=180 Ci/mmol) to each well of the microtiter plate. Each 100 μl reaction mixture contained 0.48 nM [^3H] CP-55,940, 15 μg membrane protein in binding buffer containing 1% DMSO and 0.036% methyl cellulose. Following incubation for 2 hours at room temperature, the reactions were filtered through 0.5% polyethylenimine-coated GF/C filter plates (UniFilter-96, Packard) with a TomTec Mark 3U Harvester (Hamden, CT). The filter plate was washed 5 times with binding buffer, rotated 180°, then re-washed 5 times with binding buffer. Bound radioactivity was quantitated following addition of 30 μl of Packard Microscint 20 scintillant in a Packard TopCount NXT microplate scintillation counter. Non-linear regression analysis of the resulting data was performed using Prism 2.0b (GraphPad, San Diego, Calif.).
The activities (potencies) for the compounds of the invention are determined by measuring their Ki values.

T1 sequence (P34972 whole entry): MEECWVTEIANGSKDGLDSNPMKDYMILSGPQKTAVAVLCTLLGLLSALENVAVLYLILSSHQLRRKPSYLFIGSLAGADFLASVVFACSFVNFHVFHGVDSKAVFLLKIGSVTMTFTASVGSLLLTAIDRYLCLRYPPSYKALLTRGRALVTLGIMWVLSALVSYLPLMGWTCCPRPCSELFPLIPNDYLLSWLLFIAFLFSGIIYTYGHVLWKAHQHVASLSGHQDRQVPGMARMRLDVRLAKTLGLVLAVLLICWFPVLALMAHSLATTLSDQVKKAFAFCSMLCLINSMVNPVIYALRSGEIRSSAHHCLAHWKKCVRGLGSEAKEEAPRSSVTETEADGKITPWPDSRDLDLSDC

Compound	Ki
COc1ccc(S(=O)(=O)c2ccc(C(C)C)cc2)c(S(=O)(=O)c2ccccn2)c1 [AG]	< 0.02 µM
CC(C)c1ccc(S(=O)(=O)c2c(S(=O)(=O)c3ccccc3F)c3ccccc3n2C)cc1 [AO]	< 0.02 µM
CC(C)c1ccc(Cc2ccc(OC(F)(F)F)cc2S(=O)(=O)c2ccccc2F)cc1 [C]	< 0.02 µM
CC(C)c1ccc(S(=O)(=O)c2ccc(OC(F)(F)F)cc2S(=O)(=O)c2ccccc2F)cc1 [F]	< 0.02 µM

Same assay, conditions: 0.48 nM [3H] CP-55,940, 15 μg membrane protein, 2 hours at room temperature; read-out: CB2 Ki

Ki	Compound
< 0.02 µM	COc1ccc(S(=O)(=O)c2ccc(C3CC3)cc2)c(S(=O)(=O)c2ccccc2F)c1 [AH]
< 0.02 µM	CC(C)c1ccc(S(=O)(=O)c2ccc(C(C)C)cc2S(=O)(=O)c2ccccn2)cc1 [AJ]
< 0.02 µM	CC(C)Oc1ccc(S(=O)(=O)c2ccc(C(C)C)cc2)c(S(=O)(=O)c2ccccc2F)c1 [AK]
< 0.02 µM	CC(C)c1ccc(S(=O)(=O)c2c(S(=O)(=O)c3ccccn3)c3ccccc3n2C)cc1 [AQ]
< 0.02 µM	CC(C)c1ccc(S(=O)(=O)c2ccc(OC(F)(F)F)cc2S(=O)(=O)c2ccccn2)cc1 [G]
< 0.02 µM	O=S(=O)(c1ccc(C2CC2)cc1)c1ccc(Cl)cc1S(=O)(=O)c1ccccc1F [K]
< 0.02 µM	COCCOc1ccc(S(=O)(=O)c2ccc(C(C)C)cc2)c(S(=O)(=O)c2ccccc2F)c1 [S]

Source: patent publication US7642272B2, “Cannabinoid receptor ligands” (Schering Corporation, priority 2003, dated 2010)
